# Columns and labels:
# Format in all cases: cell-based
# [1] = molecular target: T1, human TLR8 (Homo sapiens, UniProt Q9NR97); assay: TLR8 inhibition reporter assay (HEK-Blue cells, SEAP reporter); conditions: HEK-Blue cells overexpressing human TLR8; stimulated with R848 15.9 μM; 22 hour incubation; SEAP readout
# T1 sequence (Q9NR97 27-1041): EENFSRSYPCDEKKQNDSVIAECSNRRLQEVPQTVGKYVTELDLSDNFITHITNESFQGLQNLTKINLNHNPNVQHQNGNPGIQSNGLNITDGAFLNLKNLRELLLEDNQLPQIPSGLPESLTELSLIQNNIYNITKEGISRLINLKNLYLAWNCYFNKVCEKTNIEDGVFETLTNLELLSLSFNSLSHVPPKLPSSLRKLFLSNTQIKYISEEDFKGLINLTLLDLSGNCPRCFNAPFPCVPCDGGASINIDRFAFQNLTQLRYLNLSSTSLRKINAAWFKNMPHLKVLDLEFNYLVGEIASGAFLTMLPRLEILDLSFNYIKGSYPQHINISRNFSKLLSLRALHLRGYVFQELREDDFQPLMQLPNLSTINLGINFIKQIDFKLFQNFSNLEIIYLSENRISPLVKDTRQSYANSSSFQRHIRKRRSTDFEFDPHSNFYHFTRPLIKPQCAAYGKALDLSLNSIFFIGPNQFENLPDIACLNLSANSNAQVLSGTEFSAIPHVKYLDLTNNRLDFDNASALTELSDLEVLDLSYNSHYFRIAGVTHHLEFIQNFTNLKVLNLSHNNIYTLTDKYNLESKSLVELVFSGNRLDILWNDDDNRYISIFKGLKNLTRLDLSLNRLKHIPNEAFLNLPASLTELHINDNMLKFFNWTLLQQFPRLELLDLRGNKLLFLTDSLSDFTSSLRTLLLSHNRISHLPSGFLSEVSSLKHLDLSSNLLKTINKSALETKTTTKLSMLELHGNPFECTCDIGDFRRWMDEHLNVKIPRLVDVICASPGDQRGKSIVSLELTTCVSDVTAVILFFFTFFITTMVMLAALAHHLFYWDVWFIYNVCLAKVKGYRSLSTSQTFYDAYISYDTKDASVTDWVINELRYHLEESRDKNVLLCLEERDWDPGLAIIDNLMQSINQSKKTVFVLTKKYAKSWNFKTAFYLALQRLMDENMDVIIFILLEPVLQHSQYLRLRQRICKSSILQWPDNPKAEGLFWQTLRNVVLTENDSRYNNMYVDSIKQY
# Experimental: (§1) TLR7/8/9 Inhibition Reporter Assays
# (§2) HEK-Blue™-cells (Invivogen) overexpressing human TLR7, TLR8 or TLR9 receptors were used for screening inhibitors of these receptors using an inducible SEAP (secreted embryonic alkaline phosphatase) reporter gene under the control of the […] minimal promoter fused to five NF-κB and AP-1-binding sites. Briefly, cells are seeded into Greiner 384 well plates (15000 cells per well for TLR7, 20,000 for TLR8 and 25,000 for TLR9) and then treated with test compounds in DMSO to yield a final dose response concentration range of 0.05 nM-50 μM. After a 30 minute compound pre-treatment at room temperature, the cells are then stimulated with a TLR7 ligand (gardiquimod at a final concentration of 7.5 μM), TLR8 ligand (R848 at a final concentration of 15.9 μM) or TLR9 ligand (ODN2006 at a final concentration of 5 nM) to activate NF-κB and AP-1 which induce the production of SEAP. After a 22 hour incubation at 37° C., 5% CO2, SEAP levels are determined with the addition of HEK-Blue™ Detection reagent (Invivogen), a cell culture medium that allows for detection of SEAP, according to manufacturer's specifications. The percent inhibition is determined as the % reduction in the HEK-Blue signal present in wells treated with agonist plus DMSO alone compared to wells treated with a known inhibitor.
# [2] = molecular target: T2, human TLR9 (Homo sapiens, UniProt Q9NR96); assay: TLR9 inhibition reporter assay (HEK-Blue cells, SEAP reporter); conditions: HEK-Blue cells overexpressing human TLR9; stimulated with ODN2006 5 nM; 22 hour incubation; SEAP readout
# T2 sequence (Q9NR96 26-1032): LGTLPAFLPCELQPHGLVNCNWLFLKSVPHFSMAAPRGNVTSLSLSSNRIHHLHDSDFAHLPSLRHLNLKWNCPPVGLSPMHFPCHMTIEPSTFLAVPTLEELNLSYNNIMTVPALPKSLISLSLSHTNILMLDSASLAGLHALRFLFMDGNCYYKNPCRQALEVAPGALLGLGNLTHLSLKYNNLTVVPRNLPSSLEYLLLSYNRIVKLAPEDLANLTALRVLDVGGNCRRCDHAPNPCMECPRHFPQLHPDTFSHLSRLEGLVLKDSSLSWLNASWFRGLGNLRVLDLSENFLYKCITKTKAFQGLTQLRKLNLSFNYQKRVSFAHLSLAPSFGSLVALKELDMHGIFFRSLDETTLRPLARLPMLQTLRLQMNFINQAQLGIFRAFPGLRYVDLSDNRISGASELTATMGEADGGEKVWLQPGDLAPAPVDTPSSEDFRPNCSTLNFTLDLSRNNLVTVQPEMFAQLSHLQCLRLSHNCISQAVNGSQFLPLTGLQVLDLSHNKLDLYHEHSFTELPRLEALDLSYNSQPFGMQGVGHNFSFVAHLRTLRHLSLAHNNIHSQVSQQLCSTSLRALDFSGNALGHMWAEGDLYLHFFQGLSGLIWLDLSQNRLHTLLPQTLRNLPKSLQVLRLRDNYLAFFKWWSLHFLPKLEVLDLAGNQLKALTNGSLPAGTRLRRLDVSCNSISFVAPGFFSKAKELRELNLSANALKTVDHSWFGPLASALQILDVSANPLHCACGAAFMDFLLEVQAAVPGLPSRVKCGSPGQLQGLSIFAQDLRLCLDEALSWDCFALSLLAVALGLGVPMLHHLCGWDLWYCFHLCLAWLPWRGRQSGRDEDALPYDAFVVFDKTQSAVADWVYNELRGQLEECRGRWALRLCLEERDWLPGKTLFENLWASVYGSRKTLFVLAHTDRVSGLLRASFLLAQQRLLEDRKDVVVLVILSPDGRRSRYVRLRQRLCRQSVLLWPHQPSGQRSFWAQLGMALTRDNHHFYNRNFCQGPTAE
# How it was run: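 HEK-Blue cells with NF-κB/AP-1-driven SEAP pre-treated 30 min with compound (0.05 nM–50 μM), then stimulated with gardiquimod 7.5 μM (TLR7), R848 15.9 μM (TLR8) or ODN2006 5 nM (TLR9). SEAP detected after 22 h at 37 °C; percent inhibition relative to agonist-plus-DMSO and known-inhibitor wells.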
# [3] = molecular target: T3, human TLR7 (Homo sapiens, UniProt Q9NYK1); assay: TLR7 inhibition reporter assay (HEK-Blue cells, SEAP reporter); conditions: HEK-Blue cells overexpressing human TLR7; stimulated with gardiquimod 7.5 μM; 22 hour incubation; SEAP readout
# T3 sequence (Q9NYK1 27-1049): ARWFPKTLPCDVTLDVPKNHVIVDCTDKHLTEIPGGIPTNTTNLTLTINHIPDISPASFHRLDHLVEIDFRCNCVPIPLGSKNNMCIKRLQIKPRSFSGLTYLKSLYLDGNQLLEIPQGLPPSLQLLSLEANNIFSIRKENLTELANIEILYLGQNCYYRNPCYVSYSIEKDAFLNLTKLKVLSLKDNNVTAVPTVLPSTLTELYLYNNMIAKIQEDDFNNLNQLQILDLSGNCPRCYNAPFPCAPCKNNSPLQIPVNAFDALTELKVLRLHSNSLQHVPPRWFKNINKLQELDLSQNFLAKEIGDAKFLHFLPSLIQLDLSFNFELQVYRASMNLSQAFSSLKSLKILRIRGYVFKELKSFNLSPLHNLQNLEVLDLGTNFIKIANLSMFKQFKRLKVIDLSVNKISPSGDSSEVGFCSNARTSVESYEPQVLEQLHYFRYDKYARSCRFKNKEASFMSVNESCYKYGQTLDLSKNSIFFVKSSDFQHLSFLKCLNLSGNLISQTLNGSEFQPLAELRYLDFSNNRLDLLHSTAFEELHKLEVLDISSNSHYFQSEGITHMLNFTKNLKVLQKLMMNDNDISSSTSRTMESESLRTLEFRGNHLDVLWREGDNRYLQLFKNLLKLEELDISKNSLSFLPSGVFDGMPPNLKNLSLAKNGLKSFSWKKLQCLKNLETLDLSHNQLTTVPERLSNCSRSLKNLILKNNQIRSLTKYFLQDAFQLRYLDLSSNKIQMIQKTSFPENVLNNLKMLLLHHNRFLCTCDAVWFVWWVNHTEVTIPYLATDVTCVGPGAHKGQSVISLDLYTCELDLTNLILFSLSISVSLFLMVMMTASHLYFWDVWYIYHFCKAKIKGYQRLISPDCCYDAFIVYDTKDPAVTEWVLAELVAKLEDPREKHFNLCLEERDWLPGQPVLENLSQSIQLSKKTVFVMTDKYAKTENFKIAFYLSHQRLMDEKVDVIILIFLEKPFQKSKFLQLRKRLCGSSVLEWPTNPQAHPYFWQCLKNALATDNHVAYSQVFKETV
# Experimental: as §1, §2
smiles,measurement,setting,value
"CS(=O)(=O)c1ccc(-c2cn3cc(C4CCN(C5CC6CCC(C5)N6C5CCOCC5)CC4)cc(F)c3n2)cc1 (single isomer, unassigned) [Example 122, 8-fluoro-2-(4-(methylsulfonyl)phenyl)-6-(1-(8-(tetrahydro-2H-pyran-4-yl)-8-azabicyclo[3.2.1]octan-3-yl)piperidin-4-yl) imidazo[1,2-a]pyridine]",IC50,[1],27 µM
same,IC50,[2],0.0078 µM
same,IC50,[3],1.3 µM
"COc1ccc(-c2cn3cc(C4CCN(C5CC6CCC(C5)N6CC(C)C)CC4)cc(C)c3n2)cc1OC (single isomer, unassigned) [Example 19, 2-(3,4-dimethoxyphenyl)-6-(1-(8-isobutyl-8-azabicyclo[3.2.1]octan-3-yl)piperidin-4-yl)-8-methylimidazo[1,2-a]pyridine]",IC50,[1],> 50 µM
same,IC50,[2],0.058 µM
same,IC50,[3],2.4 µM
"Cc1cc(-c2ccc(N3CCN(CC4CC4)CC3)cc2)cn2cc(-c3ccc(S(C)(=O)=O)cc3)nc12 [Example 100, 6-(4-(4-(cyclopropylmethyl)piperazin-1-yl)phenyl)-8-methyl-2-(4-(methylsulfonyl)phenyl) imidazo[1,2-a]pyridine]",IC50,[1],14.9 µM
same,IC50,[2],0.329 µM
same,IC50,[3],13.4 µM
"CS(=O)(=O)c1ccc(-c2cn3cc(C4CCN(C5CC6CCC(C5)N6C5COC5)CC4)cc(F)c3n2)cc1 (single isomer, unassigned) [Example 119, 8-fluoro-2-(4-(methylsulfonyl)phenyl)-6-(1-(8-(oxetan-3-yl)-8-azabicyclo[3.2.1]octan-3-yl)piperidin-4-yl)imidazo[1,2-a]pyridine]",IC50,[1],> 50 µM
same,IC50,[2],0.03 µM
same,IC50,[3],10.6 µM
"COc1ccc(-c2cn3c(n2)CCC(C2CCN(C4CC5(C4)CN(C4CCC4)C5)CC2)C3)cc1OC (single isomer, unassigned) [Example 50, 6-(1-(2-cyclobutyl-2-azaspiro[3.3]heptan-6-yl)piperidin-4-yl)-2-(3,4-dimethoxyphenyl)-5,6,7,8-tetrahydroimidazo[1,2-a]pyridine]",IC50,[1],> 50 µM
same,IC50,[2],0.04 µM
same,IC50,[3],5.3 µM
"COc1ccc(-c2cn3c(n2)CCC(C2CCN(C4CC5(C4)CN(CC(C)C)C5)CC2)C3)cc1OC (single isomer, unassigned) [Example 53, 2-(3,4-dimethoxyphenyl)-6-(1-(2-isobutyl-2-azaspiro[3.3]heptan-6-yl)piperidin-4-yl)-5,6,7,8-tetrahydroimidazo[1,2-a]pyridine]",IC50,[1],> 50 µM
same,IC50,[2],0.022 µM
same,IC50,[3],2.6 µM
"COc1ccc(-c2cn3c(n2)CCC(C2CCN(C4CC5(C4)CN(C(C)C)C5)CC2)C3)cc1OC (single isomer, unassigned) [Example 47, 2-(3,4-dimethoxyphenyl)-6-(1-(2-isopropyl-2-azaspiro[3.3]heptan-6-yl)piperidin-4-yl)-5,6,7,8-tetrahydroimidazo[1,2-a]pyridine]",IC50,[1],> 50 µM
same,IC50,[2],0.047 µM
same,IC50,[3],> 50 µM
"Cc1cc(C2CCN(C3CCN(CC(C)C)CC3)CC2)cn2cc(-c3ccc(S(C)(=O)=O)cc3)nc12 [Example 9, 6-(1′-isobutyl-[1,4′-bipiperidin]-4-yl)-8-methyl-2-(4-(methylsulfonyl)phenyl) imidazo[1,2-a]pyridine]",IC50,[1],> 50 µM
same,IC50,[2],0.042 µM
same,IC50,[3],3.3 µM
"COc1ccc(-c2cn3c(n2)CCC(C2CCN(C4CCN(C(=O)C5CC5)CC4)CC2)C3)cc1OC (racemic) [Example 42, cyclopropyl(4-(2-(3,4-dimethoxyphenyl)-5,6,7,8-tetrahydroimidazo[1,2-a]pyridin-6-yl)-[1,4′-bipiperidin]-1′-yl)methanone]",IC50,[1],> 50 µM
same,IC50,[2],0.08 µM
same,IC50,[3],19 µM
"Cc1cc(-c2ccc(N3CCN(C4COC4)CC3)cc2)cn2cc(-c3ccc(S(C)(=O)=O)cc3)nc12 [Example 103, 8-methyl-2-(4-(methylsulfonyl)phenyl)-6-(4-(4-(oxetan-3-yl)piperazin-1-yl)phenyl)imidazo[1,2-a]pyridine]",IC50,[1],> 50 µM
same,IC50,[2],9.2 µM
same,IC50,[3],38.5 µM

# — patent US12486267B2, “Imidazo[1,2-A]pyridine and [1,2,4]triazolo[1,5-A]pyridine derivatives as TLR9 inhibitors for the treatment of fibrosis” (BRISTOL-MYERS SQUIBB COMPANY, priority 2020, dated 2025)
